Laboratory results taken from ChEMBL document CHEMBL2384934, “Discovery of 3-phenyl-1H-5-pyrazolylamine derivatives containing a urea pharmacophore as potent and efficacious inhibitors of FMS-like tyrosine kinase-3 (FLT3)” (Bioorg Med Chem, 2013).

What was measured:
MOLM-13 = assay: cells; settings: Homo sapiens, MOLM-13, 72 h
Aurora kinase A = target: T1, Aurora kinase A (Homo sapiens, UniProt O14965); assay: biochemical
T1 sequence (O14965 whole entry): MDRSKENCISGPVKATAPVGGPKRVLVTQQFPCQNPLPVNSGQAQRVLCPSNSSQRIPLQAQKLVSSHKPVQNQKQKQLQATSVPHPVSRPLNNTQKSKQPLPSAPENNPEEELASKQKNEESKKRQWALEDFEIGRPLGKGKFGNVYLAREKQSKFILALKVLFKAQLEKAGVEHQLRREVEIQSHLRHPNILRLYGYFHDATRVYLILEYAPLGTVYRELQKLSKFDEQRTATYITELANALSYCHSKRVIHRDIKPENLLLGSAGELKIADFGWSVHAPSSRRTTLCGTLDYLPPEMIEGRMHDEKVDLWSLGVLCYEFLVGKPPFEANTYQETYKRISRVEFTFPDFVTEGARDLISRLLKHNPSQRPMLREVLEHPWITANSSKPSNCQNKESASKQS
Description: Inhibition of recombinant GST tagged Aurora A kinase (123 to 401) (unknown origin) transfected in insect sf9 cells after 90 mins by wallac counting analysis

[1] = target: Vascular endothelial growth factor receptor 2 (Homo sapiens, UniProt P35968); assay: biochemical; assay type: cell-based, Sf9
Description: Inhibition of recombinant GST tagged VEGFR2 (789 to 1356) (unknown origin) transfected in insect sf9 cells after 120 mins by wallac counting analysis

[2] = target: T2, Receptor-type tyrosine-protein kinase FLT3 (Homo sapiens, UniProt P36888); assay: biochemical; assay type: cell-based, Sf9
T2 sequence (P36888 whole entry): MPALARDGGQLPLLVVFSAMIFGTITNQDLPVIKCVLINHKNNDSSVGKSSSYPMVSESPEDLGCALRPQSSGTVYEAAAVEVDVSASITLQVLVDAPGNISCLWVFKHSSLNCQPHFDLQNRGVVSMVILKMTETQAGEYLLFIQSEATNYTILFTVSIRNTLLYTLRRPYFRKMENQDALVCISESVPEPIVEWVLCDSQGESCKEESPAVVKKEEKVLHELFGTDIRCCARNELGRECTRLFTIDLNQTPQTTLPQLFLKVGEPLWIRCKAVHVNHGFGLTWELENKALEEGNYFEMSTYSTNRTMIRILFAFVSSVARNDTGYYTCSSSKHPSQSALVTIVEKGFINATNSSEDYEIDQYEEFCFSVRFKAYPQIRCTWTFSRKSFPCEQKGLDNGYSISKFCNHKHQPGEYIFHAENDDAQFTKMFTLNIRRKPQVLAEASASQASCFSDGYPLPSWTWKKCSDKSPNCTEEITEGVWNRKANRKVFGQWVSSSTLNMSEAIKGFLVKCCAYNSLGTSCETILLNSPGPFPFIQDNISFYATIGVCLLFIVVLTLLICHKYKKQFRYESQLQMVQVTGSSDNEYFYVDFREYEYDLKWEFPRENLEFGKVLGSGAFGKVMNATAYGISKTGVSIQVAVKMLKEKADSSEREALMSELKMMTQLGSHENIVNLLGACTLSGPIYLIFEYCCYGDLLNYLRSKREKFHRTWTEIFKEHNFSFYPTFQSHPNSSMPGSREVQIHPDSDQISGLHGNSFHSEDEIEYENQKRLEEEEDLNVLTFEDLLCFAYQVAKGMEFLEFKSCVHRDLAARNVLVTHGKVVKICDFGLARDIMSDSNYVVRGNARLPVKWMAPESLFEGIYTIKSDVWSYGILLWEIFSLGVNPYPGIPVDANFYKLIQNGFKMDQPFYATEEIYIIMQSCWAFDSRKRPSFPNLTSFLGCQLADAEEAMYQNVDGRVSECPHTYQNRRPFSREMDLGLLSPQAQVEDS
Description: Inhibition of wild type GST tagged FLT3 kinase (567 to 993) (unknown origin) transfected in insect sf9 cells after 4 hrs by wallac counting analysis

[3] = Plasma clearance in Sprague-Dawley rat at 2 mg/kg, iv; assay type: ADME, organism-based; set-up: dose 2 mg/kg, route intravenous
[4] = AUC (0 to infinity) in Sprague-Dawley rat at 2 mg/kg, iv; assay type: ADME, organism-based; set-up: time infinity, dose 2 mg/kg, route intravenous; settings: plasma
[5] = Volume of distribution at steady state in Sprague-Dawley rat at 2 mg/kg, iv; assay type: ADME, organism-based; set-up: dose 2 mg/kg, route intravenous; settings: in vivo, read-out: Vdss
[6] = Half life in Sprague-Dawley rat at 2 mg/kg, iv; assay type: ADME, organism-based; set-up: dose 2 mg/kg, route intravenous; settings: in vivo

Sequence of Vascular endothelial growth factor receptor 2 (P35968 whole entry): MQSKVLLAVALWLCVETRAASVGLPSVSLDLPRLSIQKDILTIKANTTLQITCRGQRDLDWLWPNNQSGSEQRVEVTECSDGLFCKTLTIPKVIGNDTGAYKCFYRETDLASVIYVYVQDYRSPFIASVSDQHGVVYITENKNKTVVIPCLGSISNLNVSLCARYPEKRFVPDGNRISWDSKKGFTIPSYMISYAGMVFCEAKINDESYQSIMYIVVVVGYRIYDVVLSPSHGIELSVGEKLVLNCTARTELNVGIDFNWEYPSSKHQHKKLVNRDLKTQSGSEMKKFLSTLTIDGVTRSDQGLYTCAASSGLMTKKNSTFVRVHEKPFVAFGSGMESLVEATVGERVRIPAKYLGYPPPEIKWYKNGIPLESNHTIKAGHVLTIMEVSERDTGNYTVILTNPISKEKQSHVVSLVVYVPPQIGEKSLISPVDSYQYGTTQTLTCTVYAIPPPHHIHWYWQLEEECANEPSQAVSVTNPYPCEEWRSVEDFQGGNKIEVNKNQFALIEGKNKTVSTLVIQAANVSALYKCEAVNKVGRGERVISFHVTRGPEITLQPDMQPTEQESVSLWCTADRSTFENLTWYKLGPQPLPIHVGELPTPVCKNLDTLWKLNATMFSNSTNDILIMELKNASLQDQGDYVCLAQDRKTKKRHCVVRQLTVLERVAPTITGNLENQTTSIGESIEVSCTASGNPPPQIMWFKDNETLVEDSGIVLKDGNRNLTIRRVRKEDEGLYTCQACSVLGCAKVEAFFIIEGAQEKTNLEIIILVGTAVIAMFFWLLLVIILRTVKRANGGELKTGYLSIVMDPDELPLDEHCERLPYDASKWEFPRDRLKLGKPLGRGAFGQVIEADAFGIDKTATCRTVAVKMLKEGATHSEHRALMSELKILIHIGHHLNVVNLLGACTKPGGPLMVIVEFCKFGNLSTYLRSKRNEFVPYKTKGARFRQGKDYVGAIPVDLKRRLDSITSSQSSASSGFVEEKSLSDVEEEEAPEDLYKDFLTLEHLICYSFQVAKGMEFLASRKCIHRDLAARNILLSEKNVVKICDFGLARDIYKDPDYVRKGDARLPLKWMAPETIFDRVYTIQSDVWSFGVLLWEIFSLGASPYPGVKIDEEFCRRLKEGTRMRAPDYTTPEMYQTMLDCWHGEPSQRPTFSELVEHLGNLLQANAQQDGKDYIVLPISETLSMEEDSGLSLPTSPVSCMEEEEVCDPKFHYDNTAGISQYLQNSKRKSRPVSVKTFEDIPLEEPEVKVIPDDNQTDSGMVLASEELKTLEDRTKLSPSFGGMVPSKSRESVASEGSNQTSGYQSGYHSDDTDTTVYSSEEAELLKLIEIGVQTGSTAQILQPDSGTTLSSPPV

| SMILES | GI50 (MOLM-13) [nM] | IC50 (Aurora kinase A) [nM] | IC50 [1] [nM] | IC50 [2] [nM] | clearance [3] [mL/min/kg] | AUC(0-inf) [4] [ng·h/mL] | Vd [5] [L/kg] | half-life [6] [h] |
| --- | --- | --- | --- | --- | --- | --- | --- | --- |
| CN1CCN(c2ccc(C(=O)Nc3cc(-c4ccc(NC(=O)Nc5ccccc5)cc4)n[nH]3)cc2)CC1 | 6 | 330 | 26 | 13 | – | – | – | – |
| CN1CCN(c2ccc(C(=O)Nc3cc(-c4ccc(NC(=O)N5CCCC5)cc4)n[nH]3)cc2)CC1 | 37 | > 1000 | > 1000 | 70 | – | – | – | – |
| CN1CCN(c2ccc(C(=O)Nc3cc(-c4cccc(NS(=O)(=O)c5ccccc5)c4)n[nH]3)cc2)CC1 | 21 | – | – | 11 | – | – | – | – |
| CC(C)(C)c1cc(NC(=O)Nc2ccc(-c3cc(NC(=O)c4ccc(OCCN5CCCC5)cc4)[nH]n3)cc2)no1 | 2 | 47 | 12 | 15 | – | – | – | – |
| CCNC(=O)Nc1ccc(-c2cc(NC(=O)c3ccc(N4CCN(C)CC4)cc3)[nH]n2)cc1 | 33 | > 1000 | 100 | 94 | – | – | – | – |
| O=C(NCc1ccc(-c2cc(NC(=O)c3ccc(OCCN4CCCC4)cc3)[nH]n2)cc1)OCc1ccccc1 | 2 | – | – | – | – | – | – | – |
| Cc1nc(Nc2cc(-c3ccc(CNC(=O)Nc4cc(C(C)(C)C)on4)cc3)n[nH]2)cc(N2CCNCC2)n1 | 8 | 710 | 85 | 26 | – | – | – | – |
| CN1CCN(c2ccc(C(=O)Nc3cc(-c4ccc(NC(=O)Nc5cccnc5)cc4)n[nH]3)cc2)CC1 | 22 | 300 | 190 | 74 | – | – | – | – |
| CN1CCN(Cc2ccc(C(=O)Nc3cc(-c4ccc(CNC(=O)Nc5ccccc5)cc4)n[nH]3)cc2)CC1 | 4 | > 1000 | 82 | 22 | – | – | – | – |
| Cc1cc(NC(=O)NCc2ccc(-c3cc(NC(=O)c4ccc(N5CCN(C)CC5)cc4)[nH]n3)cc2)no1 | 2 | 940 | 50 | 13 | – | – | – | – |
| CN1CCN(c2ccc(C(=O)Nc3cc(-c4ccc(NC(=O)Nc5cc(C(C)(C)C)on5)cc4)n[nH]3)cc2)CC1 | 5 | 53 | 12 | 30 | – | – | – | – |
| Cc1nc(Nc2cc(-c3ccc(CNC(=O)Nc4cccc(Cl)c4)cc3)n[nH]2)cc(N2CCNCC2)n1 | 18 | 790 | 38 | 26 | – | – | – | – |
| Cc1cc(NC(=O)Nc2ccc(-c3cc(NC(=O)c4ccc(N5CCN(C)CC5)cc4)[nH]n3)cc2C)no1 | 1 | 250 | 38 | 9 | – | – | – | – |
| CN1CCN(c2ccc(C(=O)Nc3cc(-c4ccc(NC(=O)Nc5ccccn5)cc4)n[nH]3)cc2)CC1 | 42 | 610 | 73 | 40 | – | – | – | – |
| Cc1nc(Nc2cc(-c3ccc(NC(=O)Nc4ccccc4)cc3)n[nH]2)cc(N2CCN(C)CC2)n1 | 160 | 500 | 620 | 280 | – | – | – | – |
| CC(C)(C)c1cc(NC(=O)Nc2ccc(-c3cc(NC(=O)c4ccc(OCCN5CCOCC5)cc4)[nH]n3)cc2)no1 | 2 | 160 | 22 | 19 | – | – | – | – |
| O=C(NCc1ccc(-c2cc(NC(=O)c3ccc(OCCN4CCOCC4)cc3)[nH]n2)cc1)Nc1ccc(Cl)cc1 | 3 | > 1000 | 71 | 16 | – | – | – | – |
| Cc1nc(Nc2cc(-c3ccc(CNC(=O)Nc4cc(C(C)(C)C)on4)cc3)n[nH]2)cc(N2CCN(C)CC2)n1 | 3 | 120 | 12 | 35 | – | – | – | – |
| CN1CCN(c2ccc(C(=O)Nc3cc(-c4ccc(NC(=O)NC5CC5)cc4)n[nH]3)cc2)CC1 | 18 | > 1000 | 300 | 52 | – | – | – | – |
| O=C(NCc1ccc(-c2cc(NC(=O)c3ccc(OCCN4CCOCC4)cc3)[nH]n2)cc1)Nc1ccc(F)cc1 | 5 | > 1000 | 130 | 66 | – | – | – | – |
| O=C(NCc1ccc(-c2cc(NC(=O)c3ccc(OCCN4CCOCC4)cc3)[nH]n2)cc1)Nc1ccccc1 | 3 | 760 | 54 | 9 | – | – | – | – |
| Cc1cc(NC(=O)Nc2ccc(-c3cc(NC(=O)c4ccc(N5CCN(C)CC5)cc4)[nH]n3)cc2)no1 | 3 | 120 | 31 | 6 | – | – | – | – |
| Cc1nc(Nc2cc(-c3ccc(CNC(=O)Nc4cc(C)on4)cc3)n[nH]2)cc(N2CCN(C)CC2)n1 | 9 | 320 | 100 | 21 | – | – | – | – |
| Cc1nc(Nc2cc(-c3ccc(CNC(=O)Nc4cc(C(C)(C)C)on4)cc3)n[nH]2)cc(N2CCN(CCO)CC2)n1 | 5 | 490 | 50 | 95 | – | – | – | – |
| Cc1cc(-c2cc(NC(=O)c3ccc(CN4CCN(C)CC4)cc3)[nH]n2)ccc1NC(=O)Nc1cc(C(C)(C)C)on1 | – | – | – | – | 11.3 | 3020 | 10 | 17 |
| Cc1cnc(NC(=O)Nc2ccc(-c3cc(NC(=O)c4ccc(N5CCN(C)CC5)cc4)[nH]n3)cc2)s1 | 9 | 65 | 35 | 50 | – | – | – | – |
| Cc1cc(NC(=O)Nc2ccc(-c3cc(NC(=O)c4ccc(N5CCN(C)CC5)cc4)[nH]n3)cc2Cl)no1 | 7 | 600 | > 1000 | 390 | – | – | – | – |
| CN1CCN(Cc2ccc(C(=O)Nc3cc(-c4ccc(CNC(=O)Nc5cc(C(C)(C)C)on5)cc4)n[nH]3)cc2)CC1 | 3 | > 1000 | 18 | 4 | 17.2 | 2120 | 8 | 11 |
| Cc1nc(Nc2cc(-c3ccc(CNC(=O)Nc4cc(C)on4)cc3)n[nH]2)cc(N2CCN(CCO)CC2)n1 | 16 | 98 | 120 | 17 | – | – | – | – |
| CN1CCN(Cc2ccc(C(=O)Nc3cc(-c4ccc(NC(=O)Nc5cc(C(C)(C)C)on5)cc4)n[nH]3)cc2)CC1 | 1 | 160 | 12 | 8 | – | – | – | – |
